Experimental data published in ChEMBL document CHEMBL1201862, “PubChem BioAssay data set” (2004).
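Growth conditions: 96-well plates. Treatment: test compound, 48 hours, 5 concentrations. Analysis: linear interpolation between bracketing concentrations; unreached endpoints set to highest concentration. GI50 = concentration required for 50% inhibition of growth.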 Calls of active or inactive are those of the source. Cut-off read from the data, not from the text of the source: active = GI50 up to about 1.1 µM and inactive = higher.

Legend:
Experiment in all cases: DTP human tumour cell line panel, 48 h
786-0 = tested on: 786-0
A498 = tested on: A498
A549 = tested on: A549
ACHN = tested on: ACHN
BT-549 = tested on: BT-549
CAKI-1 = tested on: CAKI-1
CCRF-CEM = tested on: CCRF-CEM
COLO 205 = tested on: COLO 205
DLD-1 = tested on: DLD-1
DMS-114 = tested on: DMS-114
DMS-273 = tested on: DMS-273
DU-145 = tested on: DU-145
EKVX = tested on: EKVX
HCC 2998 = tested on: HCC 2998
HCT-116 = tested on: HCT-116
HCT-15 = tested on: HCT-15
HL-60 = tested on: HL-60
HOP-18 = tested on: HOP-18
HOP-62 = tested on: HOP-62
HOP-92 = tested on: HOP-92
HT-29 = tested on: HT-29
Hs-578T = tested on: Hs-578T
IGROV-1 = tested on: IGROV-1
K562 = tested on: K562
KM-20L2 = tested on: KM-20L2
KM12 = tested on: KM12
LOX IMVI = tested on: LOX IMVI
LXFL 529 = tested on: LXFL 529
M14 = tested on: M14
M19-MEL = tested on: M19-MEL
MDA-MB-231 = tested on: MDA-MB-231
MDA-MB-435 = tested on: MDA-MB-435
MDA-N = tested on: MDA-N
MOLT-4 = tested on: MOLT-4
Malme-3M = tested on: Malme-3M
NCI-H226 = tested on: NCI-H226
NCI-H23 = tested on: NCI-H23
NCI-H460 = tested on: NCI-H460
NCI-H522 = tested on: NCI-H522
NCI/ADR-RES = tested on: NCI/ADR-RES
OVCAR-3 = tested on: OVCAR-3
OVCAR-4 = tested on: OVCAR-4
OVCAR-5 = tested on: OVCAR-5
OVCAR-8 = tested on: OVCAR-8
PC-3 = tested on: PC-3
RPMI-8226 = tested on: RPMI-8226
RXF 393 = tested on: RXF 393
RXF 631 = tested on: RXF 631
SF-268 = tested on: SF-268
SF-295 = tested on: SF-295
SF-539 = tested on: SF-539
SK-MEL-28 = tested on: SK-MEL-28
SK-MEL-2 = tested on: SK-MEL-2
SK-MEL-5 = tested on: SK-MEL-5
SK-OV-3 = tested on: SK-OV-3
SN12C = tested on: SN12C
SNB-19 = tested on: SNB-19
SNB-75 = tested on: SNB-75
SNB-78 = tested on: SNB-78
SR = tested on: SR
SW-620 = tested on: SW-620
T47D = tested on: T47D
TK-10 = tested on: TK-10
U-251 = tested on: U-251
UACC-257 = tested on: UACC-257
UACC-62 = tested on: UACC-62
UO-31 = tested on: UO-31
XF498 = tested on: XF498

For Nc1ccc(S(=O)(=O)Nc2cnc3ccccc3n2)cc1 [SULFAQUINOXALINE], the GI50 (786-0) was > 100 µM (inactive), the GI50 (A498) was > 100 µM (inactive) and the GI50 (A549) was > 100 µM (inactive). For the same compound, the GI50 (ACHN) was > 100 µM (inactive), the GI50 (BT-549) was > 100 µM (inactive) and the GI50 (CAKI-1) was > 100 µM (inactive). For the same compound, the GI50 (CCRF-CEM) was > 100 µM (inactive), the GI50 (COLO 205) was > 100 µM (inactive) and the GI50 (DLD-1) was > 100 µM (inactive). For the same compound, the GI50 (DMS-114) was > 100 µM (inactive), the GI50 (DMS-273) was > 100 µM (inactive) and the GI50 (DU-145) was > 100 µM (inactive). For the same compound, the GI50 (EKVX) was > 100 µM (inactive), the GI50 (HCC 2998) was > 100 µM (inactive) and the GI50 (HCT-116) was > 100 µM (inactive). For the same compound, the GI50 (HCT-15) was greater than 100 µM, the GI50 (HL-60) was > 100 µM (inactive) and the GI50 (HOP-18) was > 100 µM (inactive). The GI50 (HOP-62) was > 100 µM (inactive), the GI50 (HOP-92) was > 100 µM (inactive) and the GI50 (HT-29) was > 100 µM (inactive). The GI50 (Hs-578T) was < 0.01 µM (active), the GI50 (IGROV-1) was > 96.6 µM (inactive) and the GI50 (K562) was > 100 µM (inactive). For the same compound, the GI50 (KM-20L2) was > 100 µM (inactive), the GI50 (KM12) was > 100 µM (inactive) and the GI50 (LOX IMVI) was > 100 µM (inactive). The GI50 (LXFL 529) was > 100 µM (inactive), the GI50 (M14) was > 100 µM (inactive) and the GI50 (M19-MEL) was > 100 µM (inactive). The GI50 (MDA-MB-231) was > 100 µM (inactive), the GI50 (MDA-MB-435) was > 100 µM (inactive) and the GI50 (MDA-N) was > 100 µM (inactive). The GI50 (MOLT-4) was > 100 µM (inactive), the GI50 (Malme-3M) was > 96.6 µM (inactive) and the GI50 (NCI-H226) was > 100 µM (inactive). For the same compound, the GI50 (NCI-H23) was > 100 µM (inactive), the GI50 (NCI-H460) was > 100 µM (inactive) and the GI50 (NCI-H522) was > 100 µM (inactive). The GI50 (NCI/ADR-RES) was > 100 µM (inactive), the GI50 (OVCAR-3) was > 100 µM (inactive) and the GI50 (OVCAR-4) was > 100 µM (inactive). For the same compound, the GI50 (OVCAR-5) was > 100 µM (inactive), the GI50 (OVCAR-8) was > 100 µM (inactive) and the GI50 (PC-3) was > 100 µM (inactive). For the same compound, the GI50 (RPMI-8226) was > 100 µM (inactive), the GI50 (RXF 393) was > 100 µM (inactive) and the GI50 (RXF 631) was > 100 µM (inactive). The GI50 (SF-268) was > 87.9 µM (inactive), the GI50 (SF-295) was > 100 µM (inactive) and the GI50 (SF-539) was > 100 µM (inactive). The GI50 (SK-MEL-28) was > 100 µM (inactive), the GI50 (SK-MEL-2) was > 52.1 µM (inactive) and the GI50 (SK-MEL-5) was > 100 µM (inactive). For the same compound, the GI50 (SK-OV-3) was > 100 µM (inactive), the GI50 (SN12C) was > 100 µM (inactive) and the GI50 (SNB-19) was > 100 µM (inactive). The GI50 (SNB-75) was 26.7 µM (inactive), the GI50 (SNB-78) was > 100 µM (inactive) and the GI50 (SR) was > 100 µM (inactive). For the same compound, the GI50 (SW-620) was > 100 µM (inactive), the GI50 (T47D) was > 100 µM (inactive) and the GI50 (TK-10) was > 100 µM (inactive). For the same compound, the GI50 (U-251) was > 100 µM (inactive), the GI50 (UACC-257) was > 100 µM (inactive) and the GI50 (UACC-62) was > 100 µM (inactive). For the same compound, the GI50 (UO-31) was > 100 µM (inactive) and the GI50 (XF498) was > 100 µM (inactive).
